Assay results reported in patent US11826373B2, “Methods for treatment of diseases” (Galera Labs, LLC, priority 2011, dated 2023).

Experiments:
[1] = test system: healthy male and female subjects; experiment: Human Phase 1 single rising dose safety and tolerability of GC4403; assay type: in vivo
Method: In a Phase 1 randomized, double-blind, placebo-controlled single rising dose safety, tolerability and pharmacokinetics study, 54 healthy male and female subjects were dosed from 2.2 to 25 mg of GC4403 administered intravenously over 30 minutes. Disposition of GC4403 is multi-exponential and follows linear pharmacokinetics with generally proportional increases in AUC and Cmax with increasing dose over the dose ranges studied. […] GC4403 is excreted unchanged in the urine and accounts for approximately 9 to 17% of the dose administered. No significant cardiovascular or vital sign effects, no significant physical examination abnormalities, and no significant abnormalities in routine clinical laboratory assessments were observed. Facial tingling, generalized tingling, paraesthesias and facial warmth were reported in a dose responsive manner, occurring at the 16.7 and 25 mg GC4403 doses.

[2] = test system: Sprague-Dawley rats; experiment: Rat GC4403 28-day IV toxicology; assay type: in vivo; conditions: 28 days
Method: GC4403 was evaluated in a 28-day GLP study in Sprague-Dawley rats. GC4403 was administered to rats (10/sex/group) as slow-bolus IV injections at dosages of 0, 1, 3 or 6 mg/kg/day for 28 days. The control (0 dose) group received vehicle (26 mM sodium bicarbonate in normal saline). Evaluations for compound-related effects were based on clinical observations, body weight, food consumption, hematology and clinical chemistry parameters, functional observation battery, organ weights and gross and microscopic postmortem examinations. There were no compound-related changes in organ weights or macroscopic or microscopic pathology. Based on the results of this study, the NOTEL for GC4403, when administered to rats for 28 days as an IV infusion was 3 mg/kg/day.

## [Cl][Mn-5]1234([Cl])[n+]5c6cccc5C[NH+]1[C@@H]1CCCC[C@H]1[NH+]2CC[NH+]3[C@@H]1CCCC[C@H]1[NH+]4C6 (stereo partly shown) [GC4403]
[1]; 7.4 mg, 4 subjects dosed
  Injection Site Pain (treatment-emergent adverse event): 0 (0) N (%)
  Lightheadedness (treatment-emergent adverse event): 0 (0) N (%)
  Paresthesia (treatment-emergent adverse event): 0 (0) N (%)
  Skin Tightness (treatment-emergent adverse event): 0 (0) N (%)
  Taste Perversion (treatment-emergent adverse event): 0 (0) N (%)
  Tingling (treatment-emergent adverse event): 0 (0) N (%)
  Tingling Mouth (treatment-emergent adverse event): 0 (0) N (%)
[1]; 11.1 mg, 4 subjects dosed
  Any Event (treatment-emergent adverse event): 0 (0) N (%)
  Conjunctivitis (treatment-emergent adverse event): 0 (0) N (%)
  Cough (treatment-emergent adverse event): 0 (0) N (%)
  Discolored Urine (treatment-emergent adverse event): 0 (0) N (%)
  Drowsiness (treatment-emergent adverse event): 0 (0) N (%)
  Facial Warmth (treatment-emergent adverse event): 0 (0) N (%)
  Feeling Drunk (treatment-emergent adverse event): 0 (0) N (%)
  Headache (treatment-emergent adverse event): 0 (0) N (%)
  Inj. Site Pressure (treatment-emergent adverse event): 0 (0) N (%)
  Inj. Site Reaction (treatment-emergent adverse event): 0 (0) N (%)
  Injection Site Pain (treatment-emergent adverse event): 0 (0) N (%)
  Lightheadedness (treatment-emergent adverse event): 0 (0) N (%)
  Paresthesia (treatment-emergent adverse event): 0 (0) N (%)
  Skin Tightness (treatment-emergent adverse event): 0 (0) N (%)
  Taste Perversion (treatment-emergent adverse event): 0 (0) N (%)
  Tingling (treatment-emergent adverse event): 0 (0) N (%)
  Tingling Mouth (treatment-emergent adverse event): 0 (0) N (%)
[1]; 16.7 mg, 4 subjects dosed
  Any Event (treatment-emergent adverse event): 2 (50) N (%)
  Conjunctivitis (treatment-emergent adverse event): 0 (0) N (%)
  Cough (treatment-emergent adverse event): 1 (25) N (%)
  Discolored Urine (treatment-emergent adverse event): 0 (0) N (%)
  Drowsiness (treatment-emergent adverse event): 0 (0) N (%)
  Facial Warmth (treatment-emergent adverse event): 0 (0) N (%)
  Feeling Drunk (treatment-emergent adverse event): 0 (0) N (%)
  Headache (treatment-emergent adverse event): 1 (25) N (%)
  Inj. Site Pressure (treatment-emergent adverse event): 0 (0) N (%)
  Inj. Site Reaction (treatment-emergent adverse event): 0 (0) N (%)
  Injection Site Pain (treatment-emergent adverse event): 1 (25) N (%)
  Lightheadedness (treatment-emergent adverse event): 0 (0) N (%)
  Paresthesia (treatment-emergent adverse event): 0 (0) N (%)
  Skin Tightness (treatment-emergent adverse event): 0 (0) N (%)
  Taste Perversion (treatment-emergent adverse event): 0 (0) N (%)
  Tingling (treatment-emergent adverse event): 2 (50) N (%)
  Tingling Mouth (treatment-emergent adverse event): 0 (0) N (%)
[1]; 25.0 mg, 12 subjects dosed
  Any Event (treatment-emergent adverse event): 10 (87.3) N (%)
  Conjunctivitis (treatment-emergent adverse event): 0 (0) N (%)
  Cough (treatment-emergent adverse event): 0 (0) N (%)
  Discolored Urine (treatment-emergent adverse event): 1 (8.3) N (%)
  Drowsiness (treatment-emergent adverse event): 1 (8.3) N (%)
  Facial Warmth (treatment-emergent adverse event): 1 (8.3) N (%)
  Feeling Drunk (treatment-emergent adverse event): 1 (8.3) N (%)
  Headache (treatment-emergent adverse event): 1 (8.3) N (%)
  Inj. Site Pressure (treatment-emergent adverse event): 1 (8.3) N (%)
  Inj. Site Reaction (treatment-emergent adverse event): 1 (8.3) N (%)
  Injection Site Pain (treatment-emergent adverse event): 4 (33.3) N (%)
  Lightheadedness (treatment-emergent adverse event): 2 (16.7) N (%)
  Paresthesia (treatment-emergent adverse event): 1 (8.3) N (%)
  Skin Tightness (treatment-emergent adverse event): 1 (8.3) N (%)
  Taste Perversion (treatment-emergent adverse event): 1 (8.3) N (%)
  Tingling (treatment-emergent adverse event): 3 (25.0) N (%)
  Tingling Mouth (treatment-emergent adverse event): 5 (41.7) N (%)
[1]; 2.2 to 25 mg IV over 30 minutes
  maximum tolerated dose (MTD): not established
[1]; healthy subjects
  tolerability of single doses up to 25 mg: no severe adverse events
[2]
  NOTEL: 3 mg/kg/day
